In PMC5707448, “Luminescent platinum(II) complexes with self-assembly and anti-cancer properties: hydrogel, pH dependent emission color and sustained-release properties under physiological conditions” (Chemical Science, 2015):

Key:
HeLa = test: MTT cytotoxicity assay, HeLa; format: cell-based, human; conditions: 72 h treatment
Experimental: (§1) We then tested whether accumulation of platinum(II) complexes in lysosomes was associated with an increase in lysosomal membrane permeability (LMP). […] The cells were then treated with 1a or 2 at different concentrations.[17] […] Induction of LMP is a known cell death mechanism.[19] Therefore, we examined the cytotoxicity of the platinum(II) complexes towards different cancer cells by means of MTT (3-(4,5-dimethyl-2-thiazolyl)-2,5-diphenyltetrazolium bromide) (Table 1) and naphthol blue black (NBB) staining (Table S4 ^†) assays. […]
(§2) MTT assay Cancer cells (cell density = 4000-6000 cells/100µL) were seeded in a 96-well, flat-bottomed microtitre plate in growth medium (100 µL) and incubated at 37 °C under a 5% CO2 atmosphere for 24 h. Different concentrations of complexes were added and the plates were incubated for 72 h. After a total incubation time of 72 h, MTT in PBS solution (5 mg/mL, 10 µL) was added to each well. The plates were incubated at 37 °C under a 5% CO2 atmosphere for another 4 h, followed by adding 100 µL of sodium dodecyl sulfate (SDS, 10%) in diluted hydrochloric acid to each well. After further in dark at 37 °C overnight, the percentage of survival cells were determined with a microtitre plate reader at 590 nm. […]

breast cancer (MDA) = test: MTT cytotoxicity assay, MDA; format: cell-based; conditions: 72 h treatment
Experimental: as §1, §2

[1] = tested on: ovarian carcinoma (A2780); test: MTT cytotoxicity assay, A2780; format: cell-based; conditions: 72 h treatment
Experimental: as §1, §2

[2] = tested on: nasopharyngeal carcinoma (SUNE1); test: MTT cytotoxicity assay, SUNE1; format: cell-based; conditions: 72 h treatment
Experimental: as §1, §2

B16 melanoma = test: MTT cytotoxicity assay, B16; format: cell-based; conditions: 72 h treatment
Experimental: as §1, §2

[3] = tested on: hepatocellular carcinoma cells (HepG2); test: MTT cytotoxicity assay, HepG2; format: cell-based; conditions: 72 h treatment
Experimental: as §1, §2

[4] = tested on: non-tumorigenic immortalized liver cells (MIHA); test: MTT cytotoxicity assay, MIHA; format: cell-based; conditions: 72 h treatment
Experimental: as §1, §2

HeLa cells [5] = test: Naphthol blue black (NBB) staining assay, HeLa; format: cell-based, human; conditions: 72 h incubation, read-out: Anti-proliferative activities towards HeLa cells (NBB staining assay)
Experimental: MTT assay Cancer cells (cell density = 4000-6000 cells/100µL) were seeded in a 96-well, flat-bottomed microtitre plate in growth medium (100 µL) and incubated at 37 °C under a 5% CO2 atmosphere for 24 h. Different concentrations of complexes were added and the plates were incubated for 72 h. […]
Naphthol blue black (NBB) staining assay After a total incubation time of 72 h, the medium was removed and a mixture of 50 µL of formaldehyde (3% in PBS) and 50 µL of NBB solution (0.05% NBB, 0.1 M sodium acetate, 9% acetic acid) was added. After further 30 min incubation, the mixture was removed and each well was washed with deionized water for 3 times. The plates were air-dried and 100 µL of NaOH (50 mg/mL) was added to solubilize the NBB-stained cells. The plates were […]
shaken for 1 h. […]

[6] = tested on: primary bladder cancer cells; test: MTT assay on primary bladder cancer cells; format: cell-based, human; conditions: 72 h incubation, read-out: Cytotoxic IC50, primary bladder cancer cells
Experimental: orifice, stored in pre-cooled Hank’s Balanced Solution (HBSS), and then cut with small scissor into about 2-3 mm3. The specimens were then digested with 0.5% collagenase IV at 37 °C for 15 min, filtered through sterile 100 mesh filter screen. The cells were collected by centrifugation at 700 g for 5 min, and then re-suspended in DMEM culture medium supplemented with penicillin (100 units/ml), streptomycin (100 μg/ml) and fungazone (0.25 μg/ml) at 37 °C in 95% air, 5% CO2, and cultured in […]
The medium was replaced continuously every day. The interstitial cells were removed from the primary bladder cancer cells by trypsinization with 10-times diluted enzyme. The cells were used for drug screening when the confluence reached about 70%-80%. […]
(§3) MTT assay Cancer cells (cell density = 4000-6000 cells/100µL) were seeded in a 96-well, flat-bottomed microtitre plate in growth medium (100 µL) and incubated at 37 °C under a 5% CO2 atmosphere for 24 h. […] After further in dark at 37 °C overnight, the percentage of survival cells were determined with a microtitre plate reader at 590 nm.
(§4) Naphthol blue black (NBB) staining assay After a total incubation time of 72 h, the medium was removed and a mixture of 50 µL of formaldehyde (3% in PBS) and 50 µL of NBB solution (0.05% NBB, 0.1 M sodium acetate, 9% acetic acid) was added. […] The percentage of survival cells was determined with a microtitre plate

HeLa cells [7] = test: Sustained cytotoxicity in Transwell plates (MTT), HeLa in lower chamber; format: cell-based, human; conditions: upper chamber loaded for 1 h, total 72 h
Experimental: The sustained cytotoxicity of 1a-hydrogel towards HeLa cells was tested in double-chambered Transwell® 24-well plates (Fig. 8a). The plate has a semi-permeable membrane to separate the HeLa cells (lower chamber) from direct contact with hydrogel (upper chamber). After treatment of HeLa cells with 1a-hydrogel (100 μM) at different time intervals, the upper chambers were removed and the HeLa cells were further incubated in the absence of the hydrogel. After a total of 72 h, the cell survival percentage was quantified by MTT assay. […] Therefore, an acidic environment can stimulate a faster release of 1a from 1a-hydrogel resulting in a more rapid cytotoxic effect. As the microenvironment of tumor tissues is often acidic compared to that of normal tissues,[20]1a-hydrogel could potentially achieve selective cytotoxicity towards tumor cells under in vivo conditions. […]
orifice, stored in pre-cooled Hank’s Balanced Solution (HBSS), and then cut with small scissor into about 2-3 mm3. The specimens were then digested with 0.5% collagenase IV at 37 °C for 15 min, filtered through sterile 100 mesh filter screen. […]
as §3
as §4, with “plate […]” for “plate”
and 72 h). […] After further in dark at 37 °C overnight, the percentage of survival cells were determined with a microtitre plate reader at 590 nm. […]

HeLa cells [8] = test: Soft agar colony formation assay; format: cell-based, human; conditions: 2 μM, 7 day
Experimental: HeLa cells (0.07 × 106) were seeded with 600 µL cultured medium in the lower chambers of the double-decked Transwell® 24-well plates and incubated at 37 °C under a 5% CO2 atmosphere for 24 h. A uniform scratch was introduced on each well using a […] and the images of the scratches were recorded (0 h).
Berberine@1a-hydrogel and 1a-hydrogel in 100 µL medium was separately introduced to the upper chamber. The upper chambers were detached from the lower chamber after 4 h or 8 h incubation time. The images of the scratches were captured after 24 h incubation time.
Soft agar colony formation assay
HeLa cells (1.5 × 105) were mixed with solvent control or 1a (2 µM) in 2 mL medium with 0.35% soft agar per well in a 6-well plate coated with medium with 0.7% soft agar. 1 mL medium containing solvent control or 1a (2 µM) was added to the soft agar after the soft agar was solidified. The imaging was captured after incubating the plate at 37 °C under a 5% CO2 atmosphere for 7 day.

HeLa cells [9] = test: Lysosomal membrane permeability by acridine orange staining; format: cell-based, human; conditions: 5 or 10 μM, 30 min, 37 °C
[10] = pH 7.4, 1a-hydrogel and cisplatin 100 μM

SMILES	IC50 (HeLa) [µM]	IC50 (breast cancer (MDA)) [µM]	IC50 [1] [µM]	IC50 [2] [µM]	IC50 (B16 melanoma) [µM]	IC50 [3] [µM]	IC50 [4] [µM]	IC50 (HeLa cells [5]) [µM]	IC50 [6] [µM]	Cell survival (HeLa cells [7]; [10]) [%]	Anchorage-independent colony formation (HeLa cells [8])	Lysosomal membrane permeability (red fluorescence of acridine orange) (HeLa cells [9])	Cell survival (HeLa cells [7]; pH 6.0, 100 μM) [%]
Cc1cccc(C)c1[N+]#[C][Pt-2]12[c]3ccccc3-c3cccc([n+]31)-c1cc[nH][n+]12.[Cl-] (centres unmarked) [Complex 1a, [Pt(C^N^N^pyr)(C?NR^1)]Cl]	4.4 ± 0.6	1.6 ± 0.4	1.2 ± 0.1	3.5 ± 0.8	0.66 ± 0.04	1.3 ± 0.1	6.36 ± 0.15	1.05 ± 0.06	6.9	~15	inhibited anchorage-independent colony formation	dose-dependent reductions of red fluorescence	–
COc1ccc([N+]#[C][Pt-2]23[c]4ccccc4-c4cccc([n+]42)-c2cc[nH][n+]23)cc1.O=S(=O)(O)C(F)(F)F (centres unmarked) [Complex 3]	3.8 ± 0.5	4.2 ± 1	2.7 ± 0.1	3.9 ± 0.7	2.6 ± 0.2	2.7 ± 0.2	9.56 ± 2.15	1.98 ± 0.21	–	–	–	–	–
O=S(=O)(O)C(F)(F)F.[C](#[N+]c1ccc2ccccc2c1)[Pt-2]12[c]3ccccc3-c3cccc([n+]31)-c1cc[nH][n+]12 (centres unmarked) [Complex 4]	8.3 ± 0.9	7.4 ± 0.5	5 ± 0.2	7.9 ± 1.3	3 ± 0.3	6.2 ± 0.6	13.5 ± 2.12	3.52 ± 0.89	–	–	–	–	–
N.N.[Cl][Pt][Cl] [Cisplatin]	–	–	–	–	–	–	–	4.29 ± 0.36	–	~20	–	–	~20
Cc1cccc(C)c1[N+]#[C][Pt-2]12[c]3ccccc3-c3cccc([n+]31)-c1cc[nH][n+]12.O=S(=O)(O)C(F)(F)F (centres unmarked) [Complex 1b]	2.8 ± 0.2	2.1 ± 0.5	1.2 ± 0.1	2.8 ± 0.6	0.42 ± 0.02	1.7 ± 0.4	5.23 ± 0.62	0.9 ± 0.17	–	–	–	–	–
COCCOCCOc1ccc([N+]#[C][Pt-2]23[c]4ccccc4-c4cccc([n+]42)-c2cc[nH][n+]23)cc1.O=S(=O)(O)C(F)(F)F (centres unmarked) [Complex 5]	14.4 ± 3.5	8.3 ± 1.6	11.7 ± 2.1	12.3 ± 4.2	6.2 ± 0.5	9 ± 1.6	20.2 ± 2.92	9.47 ± 1.92	–	–	–	–	–
CCCC[N+]#[C][Pt-2]12[c]3ccccc3-c3cccc([n+]31)-c1cc[nH][n+]12.[Cl-] (centres unmarked) [Complex 2]	5.1 ± 1.1	5 ± 0.2	3.3 ± 0.2	4.4 ± 1	0.85 ± 0.07	4 ± 0.8	8.12 ± 1.27	2.28 ± 0.18	–	–	–	dose-dependent reductions of red fluorescence	–
